Measured values as given in PubChem BioAssay AID1963826 (Molecular Pharmacology Branch, DTP, NCI, 2024).

Tested on: 926638-142-R-J1-PDC complex spheroid viability
Assay: Anticancer human tumor 926638-142-R-J1-PDC patient-derived endometrial carcinoma cell line growth inhibition [POLQ]
Settings: for IC50: curve of first compound; for viability, T/C: stronger effect = lower value
Outline: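 Complex spheroid viability model combining PDC tumour cells with endothelial (HUVEC) and MSC stromal cells. Novobiocin, ART-558 or RP6685 were tested singly and in combination with standard and investigational anticancer drugs. Each was titrated in half-log steps from near clinical Cmax, or from 10 microM where Cmax was unknown.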

[1] = second compound 0.0316 µM, first compound 0.0316 µM
[2] = second compound 0.0316 µM, first compound 0.1 µM
[3] = second compound 0.0316 µM, first compound 0.316 µM
[4] = second compound 0.0316 µM, first compound 1 µM
[5] = second compound 0.0316 µM, first compound 3.16 µM
[6] = second compound 0.0316 µM, first compound 10 µM
[7] = second compound 0.1 µM, first compound 0.0316 µM
[8] = second compound 0.1 µM, first compound 0.1 µM
[9] = second compound 0.1 µM, first compound 0.316 µM
[10] = second compound 0.1 µM, first compound 1 µM
[11] = second compound 0.1 µM, first compound 3.16 µM
[12] = second compound 0.1 µM, first compound 10 µM
[13] = second compound 0.316 µM, first compound 0.0316 µM
[14] = second compound 0.316 µM, first compound 0.1 µM
[15] = second compound 0.316 µM, first compound 0.316 µM
[16] = second compound 0.316 µM, first compound 1 µM
[17] = second compound 0.316 µM, first compound 3.16 µM
[18] = second compound 0.316 µM, first compound 10 µM
[19] = second compound 1 µM, first compound 0.0316 µM
[20] = second compound 1 µM, first compound 0.1 µM
[21] = second compound 1 µM, first compound 0.316 µM
[22] = second compound 1 µM, first compound 1 µM
[23] = second compound 1 µM, first compound 3.16 µM
[24] = second compound 1 µM, first compound 10 µM
[25] = second compound 3.16 µM, first compound 0.0316 µM
[26] = second compound 3.16 µM, first compound 0.1 µM
[27] = second compound 3.16 µM, first compound 0.316 µM
[28] = second compound 3.16 µM, first compound 1 µM
[29] = second compound 3.16 µM, first compound 3.16 µM
[30] = second compound 3.16 µM, first compound 10 µM
[31] = second compound 10 µM, first compound 0.0316 µM
[32] = second compound 10 µM, first compound 0.1 µM
[33] = second compound 10 µM, first compound 0.316 µM
[34] = second compound 10 µM, first compound 1 µM
[35] = second compound 10 µM, first compound 3.16 µM
[36] = second compound 10 µM, first compound 10 µM
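Also: spheroids exposed to drugs for one week before readout.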
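For viability, T/C in this document: percent viability relative to DMSO vehicle control wells set as 100%.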

C#Cc1c(F)ccc2cc(O)cc(-c3ncc4c(N5CC6CCC(C5)N6)nc(OCC56CCCN5CC(F)C6)nc4c3F)c12 (stereo not drawn) + Cc1cccc(N(C)C(=O)C2C(O)CCN2c2nc(C)cc(C(F)(F)F)c2C#N)c1
IC50 (second compound 0.0316 µM): > 10 µM
IC50 (second compound 0.1 µM): > 10 µM
IC50 (second compound 0.316 µM): > 10 µM
IC50 (second compound 1 µM): > 10 µM
IC50 (second compound 3.16 µM): > 10 µM
IC50 (second compound 10 µM): > 10 µM
viability, T/C [1]: 90.9%
viability, T/C [2]: 76.7%
viability, T/C [3]: 69.9%
viability, T/C [4]: 63.8%
viability, T/C [5]: 58.3%
viability, T/C [6]: 56.9%
viability, T/C [7]: 87.2%
viability, T/C [8]: 96.2%
viability, T/C [9]: 84.6%
viability, T/C [10]: 71.9%
viability, T/C [11]: 60.5%
viability, T/C [12]: 63.9%
viability, T/C [13]: 86.2%
viability, T/C [14]: 75.1%
viability, T/C [15]: 78.2%
viability, T/C [16]: 71.8%
viability, T/C [17]: 54%
viability, T/C [18]: 61.7%
viability, T/C [19]: 95.2%
viability, T/C [20]: 76%
viability, T/C [21]: 66.9%
viability, T/C [22]: 76.2%
viability, T/C [23]: 70.9%
viability, T/C [24]: 52.5%
viability, T/C [25]: 81.1%
viability, T/C [26]: 84.3%
viability, T/C [27]: 89.2%
viability, T/C [28]: 58.5%
viability, T/C [29]: 60.1%
viability, T/C [30]: 53.5%
viability, T/C [31]: 84.8%
viability, T/C [32]: 79%
viability, T/C [33]: 67.2%
viability, T/C [34]: 71.8%
viability, T/C [35]: 58.4%
viability, T/C [36]: 66.5%

CCc1cc2c(N3CCc4c(cc(Cn5ccnc5)cc4-c4cn(C)nc4C(F)(F)F)C3=O)cc(C)nc2c(OC)n1 + Cc1cccc(N(C)C(=O)C2C(O)CCN2c2nc(C)cc(C(F)(F)F)c2C#N)c1
IC50 (second compound 0.0316 µM): 0.397 µM
IC50 (second compound 0.1 µM): 0.658 µM
IC50 (second compound 0.316 µM): 0.7 µM
IC50 (second compound 1 µM): 0.554 µM
IC50 (second compound 3.16 µM): 0.467 µM
IC50 (second compound 10 µM): 0.257 µM
viability, T/C [1]: 77.9%
viability, T/C [2]: 72%
viability, T/C [3]: 45.9%
viability, T/C [4]: 44.4%
viability, T/C [5]: 31.8%
viability, T/C [6]: 26.9%
viability, T/C [7]: 90.2%
viability, T/C [8]: 71%
viability, T/C [9]: 59.3%
viability, T/C [10]: 44%
viability, T/C [11]: 38.1%
viability, T/C [12]: 31.4%
viability, T/C [13]: 94.8%
viability, T/C [14]: 65.3%
viability, T/C [15]: 56.3%
viability, T/C [16]: 48.4%
viability, T/C [17]: 43.2%
viability, T/C [18]: 22.5%
viability, T/C [19]: 69%
viability, T/C [20]: 80.6%
viability, T/C [21]: 58.1%
viability, T/C [22]: 39.8%
viability, T/C [23]: 34.2%
viability, T/C [24]: 26.6%
viability, T/C [25]: 91.9%
viability, T/C [26]: 66.2%
viability, T/C [27]: 56.4%
viability, T/C [28]: 38%
viability, T/C [29]: 44%
viability, T/C [30]: 27.1%
viability, T/C [31]: 66.5%
viability, T/C [32]: 64.7%
viability, T/C [33]: 45.1%
viability, T/C [34]: 37.1%
viability, T/C [35]: 36%
viability, T/C [36]: 26.8%

CC(=O)O[C@H]1C(=O)[C@@]2(C)[C@H]([C@H](OC(=O)c3ccccc3)[C@]3(O)C[C@H](OC(=O)[C@H](O)[C@@H](NC(=O)c4ccccc4)c4ccccc4)C(C)=C1C3(C)C)[C@]1(OC(C)=O)CO[C@@H]1C[C@@H]2O + Nc1ccc(C#CCN(C(=O)Cc2ncc(C(F)(F)F)cc2C(F)(F)F)c2ccc(F)cc2)nn1
IC50 (second compound 0.0316 µM): 0.433 µM
IC50 (second compound 0.1 µM): 1.3 µM
IC50 (second compound 0.316 µM): 0.458 µM
IC50 (second compound 1 µM): > 3 µM
IC50 (second compound 3.16 µM): 1.94 µM
IC50 (second compound 10 µM): 0.139 µM
viability, T/C (second compound 0.0316 µM, first compound 0.00949 µM): 85.1%
viability, T/C (second compound 0.0316 µM, first compound 0.03 µM): 62.4%
viability, T/C (second compound 0.0316 µM, first compound 0.0949 µM): 56.9%
viability, T/C (second compound 0.0316 µM, first compound 0.3 µM): 50.7%
viability, T/C (second compound 0.0316 µM, first compound 0.949 µM): 47.9%
viability, T/C (second compound 0.0316 µM, first compound 3 µM): 48%
viability, T/C (second compound 0.1 µM, first compound 0.00949 µM): 84.3%
viability, T/C (second compound 0.1 µM, first compound 0.03 µM): 76.3%
viability, T/C (second compound 0.1 µM, first compound 0.0949 µM): 58.2%
viability, T/C (second compound 0.1 µM, first compound 0.3 µM): 69.8%
viability, T/C (second compound 0.1 µM, first compound 0.949 µM): 51%
viability, T/C (second compound 0.1 µM, first compound 3 µM): 42.9%
viability, T/C (second compound 0.316 µM, first compound 0.00949 µM): 91.4%
viability, T/C (second compound 0.316 µM, first compound 0.03 µM): 72.3%
viability, T/C (second compound 0.316 µM, first compound 0.0949 µM): 57.5%
viability, T/C (second compound 0.316 µM, first compound 0.3 µM): 47.7%
viability, T/C (second compound 0.316 µM, first compound 0.949 µM): 50.9%
viability, T/C (second compound 0.316 µM, first compound 3 µM): 45.2%
viability, T/C (second compound 1 µM, first compound 0.00949 µM): 79.3%
viability, T/C (second compound 1 µM, first compound 0.03 µM): 71.3%
viability, T/C (second compound 1 µM, first compound 0.0949 µM): 57%
viability, T/C (second compound 1 µM, first compound 0.3 µM): 51.8%
viability, T/C (second compound 1 µM, first compound 0.949 µM): 50.7%
viability, T/C (second compound 1 µM, first compound 3 µM): 50.8%
viability, T/C (second compound 3.16 µM, first compound 0.00949 µM): 82.7%
viability, T/C (second compound 3.16 µM, first compound 0.03 µM): 65%
viability, T/C (second compound 3.16 µM, first compound 0.0949 µM): 53.6%
viability, T/C (second compound 3.16 µM, first compound 0.3 µM): 53.1%
viability, T/C (second compound 3.16 µM, first compound 0.949 µM): 52.8%
viability, T/C (second compound 3.16 µM, first compound 3 µM): 47.3%
viability, T/C (second compound 10 µM, first compound 0.00949 µM): 76.3%
viability, T/C (second compound 10 µM, first compound 0.03 µM): 60.7%
viability, T/C (second compound 10 µM, first compound 0.0949 µM): 50.4%
viability, T/C (second compound 10 µM, first compound 0.3 µM): 49%
viability, T/C (second compound 10 µM, first compound 0.949 µM): 46.9%
viability, T/C (second compound 10 µM, first compound 3 µM): 51.8%

COc1cccc2c1C(=O)c1c(O)c3c(c(O)c1C2=O)CC(O)(C(=O)CO)CC3OC1CC(N)C(O)C(C)O1 (stereo not drawn) + Nc1ccc(C#CCN(C(=O)Cc2ncc(C(F)(F)F)cc2C(F)(F)F)c2ccc(F)cc2)nn1
IC50 (second compound 0.0316 µM): 0.167 µM
IC50 (second compound 0.1 µM): 0.14 µM
IC50 (second compound 0.316 µM): 0.137 µM
IC50 (second compound 1 µM): 0.15 µM
IC50 (second compound 3.16 µM): 0.118 µM
IC50 (second compound 10 µM): 0.127 µM
viability, T/C [1]: 86.7%
viability, T/C [2]: 69.4%
viability, T/C [3]: 25.7%
viability, T/C [4]: 8.06%
viability, T/C [5]: 0.22%
viability, T/C [6]: 0.4%
viability, T/C [7]: 90.7%
viability, T/C [8]: 59.6%
viability, T/C [9]: 26.1%
viability, T/C [10]: 6.81%
viability, T/C [11]: 0.22%
viability, T/C [12]: 0.36%
viability, T/C [13]: 78.7%
viability, T/C [14]: 58.9%
viability, T/C [15]: 26.5%
viability, T/C [16]: 7.2%
viability, T/C [17]: 0.19%
viability, T/C [18]: 0.51%
viability, T/C [19]: 89%
viability, T/C [20]: 62.4%
viability, T/C [21]: 27.4%
viability, T/C [22]: 7.01%
viability, T/C [23]: 0.23%
viability, T/C [24]: 0.29%
viability, T/C [25]: 80.6%
viability, T/C [26]: 54.4%
viability, T/C [27]: 23.2%
viability, T/C [28]: 7.1%
viability, T/C [29]: 0.27%
viability, T/C [30]: 0.31%
viability, T/C [31]: 74%
viability, T/C [32]: 57.6%
viability, T/C [33]: 20.7%
viability, T/C [34]: 3.99%
viability, T/C [35]: 0.31%
viability, T/C [36]: 0.43%
